# Data from ChEMBL document CHEMBL4138316, “Optimization of Isothiazolo[4,3- b]pyridine-Based Inhibitors of Cyclin G Associated Kinase (GAK) with Broad-Spectrum Antiviral Activity” (J Med Chem, 2018).
# The source made the active and inactive calls. The calls are words filed in the database; no cut-off is given here.
# What was measured:
# [1] = Apparent permeability cross basolateral to apical side in MDCK-MDR1 cells at 5 uM after 90 mins by LC-MS/MS analysis; assay type: ADME, cell-based, Canis lupus familiaris; settings: dog, mdck-mdr1, 1.5 h
# [2] = Aqueous solubility in PBS buffer at pH 7.4 at 100 uM after 1 hr by LC-MS/MS analysis; assay type: physicochemical; settings: pH 7.4, 1 h
# [3] = test system: Huh-7; test: Cytotoxicity against human HuH7 cells after 48 hrs by Alamar Blue assay; assay type: cell-based; settings: huh-7, 48 h
# [4] = Apparent permeability cross apical to basolateral side in MDCK-MDR1 cells at 5 uM after 90 mins by LC-MS/MS analysis; assay type: ADME, cell-based, Canis lupus familiaris; settings: dog, mdck-mdr1, 1.5 h
# [5] = test system: dengue virus type 2; test: Antiviral activity against DENV2 New Guinea C infected in human HuH7 cells after 48 hrs by luciferase reporter gene assay; assay type: functional, organism-based; settings: Huh-7, 48 h
# [6] = test system: Huh-7; test: Cytotoxicity against human HuH7 cells after 48 hrs by CellTiter-Glo assay; assay type: cell-based; settings: huh-7, 48 h
# [7] = test system: Ebolavirus; test: Antiviral activity against Ebolavirus infected in human HuH7 cells after 48 hrs by immunofluorescence assay; assay type: functional, cell-based; settings: for EC90: Orthoebolavirus, Huh-7, 48 h
# [8] = molecular target: Tyrosine-protein kinase ABL1 (Homo sapiens) (UniProt P00519); test: Inhibition of wild-type human non-phosphorylated ABL1 (S229 to K512 residues) expressed in mammalian expression system at 10 uM by ATP-site competition binding assay based KinomeScan assay relative to control
# [9] = molecular target: Ephrin type-A receptor 7 (Homo sapiens) (UniProt Q15375); test: Inhibition of wild-type human partial length EPHA7 (Y608 to S912 residues) expressed in bacterial expression system at 10 uM by ATP-site competition binding assay based KinomeScan assay relative to control
# [10] = Cytotoxicity against human MDDC cells after 72 hrs by Alamar Blue assay; assay type: cell-based
# [11] = molecular target: Platelet-derived growth factor receptor beta (Homo sapiens) (UniProt P09619); test: Inhibition of wild-type human partial length PDGFRB (V582 to Y1009 residues) expressed in bacterial expression system at 10 uM by ATP-site competition binding assay based KinomeScan assay relative to control
# [12] = molecular target: Receptor-type tyrosine-protein kinase FLT3 (Homo sapiens) (UniProt P36888); test: Inhibition of wild-type human partial length FLT3 (V592 to Y969 residues) expressed in bacterial expression system at 10 uM by ATP-site competition binding assay based KinomeScan assay relative to control
# [13] = test system: Chikungunya virus; test: Antiviral activity against Chikungunya virus AF15561 infected in African green monkey Vero cells preincubated for 48 hrs followed by viral infection measured after 48 hrs by plaque assay; assay type: functional, organism-based
# [14] = test system: dengue virus type 2; test: Antiviral activity against DENV2 16881 infected in human MDDC after 72 hrs by plaque assay; assay type: functional, organism-based; settings: Dengue virus, 16881, 72 h
# [15] = test system: Dengue virus; test: Antiviral activity against Dengue virus infected in doxycycline-inducible GAK (unkown origin) transfected TREx293 cells up to 20 uM after 72 hrs by luciferase reporter gene assay; assay type: functional, organism-based
# [16] = molecular target: Mast/stem cell growth factor receptor Kit (Homo sapiens, UniProt P10721); test: Inhibition of wild-type human partial length KIT (I571 to D952 residues) expressed in bacterial expression system at 10 uM by ATP-site competition binding assay based KinomeScan assay relative to control
# [17] = molecular target: T1, Dual specificity mitogen-activated protein kinase kinase 5 (Homo sapiens) (UniProt Q13163); test: Inhibition of wild-type human partial length MAP2K5 (L98 to P448 residues) expressed in mammalian expression system at 10 uM by ATP-site competition binding assay based KinomeScan assay relative to control
# T1 sequence (whole entry): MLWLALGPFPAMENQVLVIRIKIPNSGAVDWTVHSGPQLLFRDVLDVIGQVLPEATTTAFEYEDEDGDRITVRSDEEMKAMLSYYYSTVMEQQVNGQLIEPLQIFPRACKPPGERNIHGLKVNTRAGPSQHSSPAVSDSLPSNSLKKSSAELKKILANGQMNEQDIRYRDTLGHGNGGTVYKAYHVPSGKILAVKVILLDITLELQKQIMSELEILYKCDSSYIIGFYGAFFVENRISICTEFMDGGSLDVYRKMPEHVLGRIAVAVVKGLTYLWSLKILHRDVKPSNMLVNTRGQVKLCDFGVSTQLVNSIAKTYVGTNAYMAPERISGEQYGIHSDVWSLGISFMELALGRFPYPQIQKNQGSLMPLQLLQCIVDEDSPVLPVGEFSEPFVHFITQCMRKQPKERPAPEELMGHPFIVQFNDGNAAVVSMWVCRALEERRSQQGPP
# [18] = molecular target: T2, Cyclin-G-associated kinase (Homo sapiens, UniProt O14976)
# T2 sequence (O14976 whole entry): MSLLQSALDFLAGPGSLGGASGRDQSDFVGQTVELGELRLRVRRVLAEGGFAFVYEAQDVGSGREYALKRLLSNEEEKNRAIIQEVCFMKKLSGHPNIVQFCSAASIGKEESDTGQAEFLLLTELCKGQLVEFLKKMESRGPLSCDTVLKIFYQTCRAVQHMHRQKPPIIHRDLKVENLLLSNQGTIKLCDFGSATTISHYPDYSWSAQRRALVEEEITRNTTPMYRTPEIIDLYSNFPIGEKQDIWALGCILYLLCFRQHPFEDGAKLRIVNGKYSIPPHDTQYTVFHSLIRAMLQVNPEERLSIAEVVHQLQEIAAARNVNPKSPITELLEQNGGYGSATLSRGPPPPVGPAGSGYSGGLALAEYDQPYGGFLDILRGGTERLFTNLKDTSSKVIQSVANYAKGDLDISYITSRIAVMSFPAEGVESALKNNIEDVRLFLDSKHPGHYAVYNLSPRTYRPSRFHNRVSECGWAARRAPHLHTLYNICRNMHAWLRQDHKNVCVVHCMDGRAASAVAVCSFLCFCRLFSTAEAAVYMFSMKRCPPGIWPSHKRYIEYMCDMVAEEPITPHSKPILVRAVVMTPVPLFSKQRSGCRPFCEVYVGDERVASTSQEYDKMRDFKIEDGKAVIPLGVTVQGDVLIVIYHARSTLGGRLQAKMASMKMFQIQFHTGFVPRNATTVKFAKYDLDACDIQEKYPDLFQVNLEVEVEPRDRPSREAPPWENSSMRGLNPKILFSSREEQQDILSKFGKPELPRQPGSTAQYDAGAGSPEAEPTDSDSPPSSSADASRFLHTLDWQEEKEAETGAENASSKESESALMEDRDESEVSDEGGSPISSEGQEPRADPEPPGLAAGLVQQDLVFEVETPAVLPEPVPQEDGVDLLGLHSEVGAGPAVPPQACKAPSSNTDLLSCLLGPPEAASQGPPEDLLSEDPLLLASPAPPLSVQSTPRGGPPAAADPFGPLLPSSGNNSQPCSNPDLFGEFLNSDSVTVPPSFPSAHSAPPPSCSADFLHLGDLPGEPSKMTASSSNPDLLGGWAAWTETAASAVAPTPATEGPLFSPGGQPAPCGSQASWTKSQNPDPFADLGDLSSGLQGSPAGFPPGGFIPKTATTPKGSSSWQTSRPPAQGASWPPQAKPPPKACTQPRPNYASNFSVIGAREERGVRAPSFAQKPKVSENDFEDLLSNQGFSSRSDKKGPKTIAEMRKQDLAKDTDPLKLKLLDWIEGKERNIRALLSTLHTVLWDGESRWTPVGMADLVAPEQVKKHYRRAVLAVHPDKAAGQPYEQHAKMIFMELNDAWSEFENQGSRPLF
# [19] = molecular target: T3, Aurora kinase C (Homo sapiens) (UniProt Q9UQB9); test: Inhibition of wild-type human full length AURKC (M1 to S275 residues) expressed in bacterial expression system at 10 uM by ATP-site competition binding assay based KinomeScan assay relative to control
# T3 sequence (whole entry): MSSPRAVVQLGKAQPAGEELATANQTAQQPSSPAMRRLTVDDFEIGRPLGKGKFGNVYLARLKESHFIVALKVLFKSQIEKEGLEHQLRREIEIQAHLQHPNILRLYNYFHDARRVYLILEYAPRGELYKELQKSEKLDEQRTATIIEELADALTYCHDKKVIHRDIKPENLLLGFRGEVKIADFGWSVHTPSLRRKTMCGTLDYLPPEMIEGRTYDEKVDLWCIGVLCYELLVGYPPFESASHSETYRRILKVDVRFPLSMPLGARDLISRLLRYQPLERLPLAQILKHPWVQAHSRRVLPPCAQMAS
# [20] = molecular target: Mitogen-activated protein kinase 14 (Homo sapiens) (UniProt Q16539); test: Inhibition of wild-type human full length MAPK14 (M1 to S360 residues) expressed in bacterial expression system at 10 uM by ATP-site competition binding assay based KinomeScan assay relative to control
# Mitogen-activated protein kinase 14 (Homo sapiens), sequence (Q16539 whole entry, the tested form may be a part): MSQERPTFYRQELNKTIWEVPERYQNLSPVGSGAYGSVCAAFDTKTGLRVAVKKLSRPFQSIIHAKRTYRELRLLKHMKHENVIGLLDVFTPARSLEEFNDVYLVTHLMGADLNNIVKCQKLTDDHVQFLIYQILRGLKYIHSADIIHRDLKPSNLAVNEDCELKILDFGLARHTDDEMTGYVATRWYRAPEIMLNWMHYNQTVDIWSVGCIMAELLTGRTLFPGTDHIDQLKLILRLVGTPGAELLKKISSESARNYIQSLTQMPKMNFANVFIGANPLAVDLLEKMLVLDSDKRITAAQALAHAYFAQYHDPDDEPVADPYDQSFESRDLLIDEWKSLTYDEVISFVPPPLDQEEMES
# Ephrin type-A receptor 7 (Homo sapiens), sequence (Q15375 28-998 limits assumed): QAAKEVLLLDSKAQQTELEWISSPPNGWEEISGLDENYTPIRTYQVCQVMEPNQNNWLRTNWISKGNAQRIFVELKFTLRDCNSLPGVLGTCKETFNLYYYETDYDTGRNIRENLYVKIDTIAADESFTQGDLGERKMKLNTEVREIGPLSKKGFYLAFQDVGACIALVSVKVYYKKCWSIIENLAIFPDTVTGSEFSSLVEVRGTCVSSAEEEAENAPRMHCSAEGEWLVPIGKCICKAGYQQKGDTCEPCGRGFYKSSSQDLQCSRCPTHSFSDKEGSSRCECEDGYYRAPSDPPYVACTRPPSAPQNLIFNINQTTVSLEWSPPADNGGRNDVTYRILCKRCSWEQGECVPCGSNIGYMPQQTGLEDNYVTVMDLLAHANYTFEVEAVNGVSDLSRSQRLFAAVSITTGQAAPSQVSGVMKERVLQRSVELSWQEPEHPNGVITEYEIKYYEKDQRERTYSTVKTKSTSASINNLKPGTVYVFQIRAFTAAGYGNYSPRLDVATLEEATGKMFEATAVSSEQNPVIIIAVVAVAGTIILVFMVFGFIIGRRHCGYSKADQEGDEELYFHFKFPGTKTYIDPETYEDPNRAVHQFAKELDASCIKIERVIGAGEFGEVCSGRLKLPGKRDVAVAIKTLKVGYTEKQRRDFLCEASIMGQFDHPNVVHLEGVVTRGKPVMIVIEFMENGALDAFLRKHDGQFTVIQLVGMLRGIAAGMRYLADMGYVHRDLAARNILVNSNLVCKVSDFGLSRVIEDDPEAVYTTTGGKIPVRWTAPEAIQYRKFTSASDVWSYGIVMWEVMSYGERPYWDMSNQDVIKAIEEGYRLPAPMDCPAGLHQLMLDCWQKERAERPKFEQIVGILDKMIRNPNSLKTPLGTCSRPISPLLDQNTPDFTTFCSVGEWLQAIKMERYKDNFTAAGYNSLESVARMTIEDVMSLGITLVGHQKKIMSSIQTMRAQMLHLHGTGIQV
# Receptor-type tyrosine-protein kinase FLT3 (Homo sapiens), sequence (P36888 whole entry, the tested form may be a part): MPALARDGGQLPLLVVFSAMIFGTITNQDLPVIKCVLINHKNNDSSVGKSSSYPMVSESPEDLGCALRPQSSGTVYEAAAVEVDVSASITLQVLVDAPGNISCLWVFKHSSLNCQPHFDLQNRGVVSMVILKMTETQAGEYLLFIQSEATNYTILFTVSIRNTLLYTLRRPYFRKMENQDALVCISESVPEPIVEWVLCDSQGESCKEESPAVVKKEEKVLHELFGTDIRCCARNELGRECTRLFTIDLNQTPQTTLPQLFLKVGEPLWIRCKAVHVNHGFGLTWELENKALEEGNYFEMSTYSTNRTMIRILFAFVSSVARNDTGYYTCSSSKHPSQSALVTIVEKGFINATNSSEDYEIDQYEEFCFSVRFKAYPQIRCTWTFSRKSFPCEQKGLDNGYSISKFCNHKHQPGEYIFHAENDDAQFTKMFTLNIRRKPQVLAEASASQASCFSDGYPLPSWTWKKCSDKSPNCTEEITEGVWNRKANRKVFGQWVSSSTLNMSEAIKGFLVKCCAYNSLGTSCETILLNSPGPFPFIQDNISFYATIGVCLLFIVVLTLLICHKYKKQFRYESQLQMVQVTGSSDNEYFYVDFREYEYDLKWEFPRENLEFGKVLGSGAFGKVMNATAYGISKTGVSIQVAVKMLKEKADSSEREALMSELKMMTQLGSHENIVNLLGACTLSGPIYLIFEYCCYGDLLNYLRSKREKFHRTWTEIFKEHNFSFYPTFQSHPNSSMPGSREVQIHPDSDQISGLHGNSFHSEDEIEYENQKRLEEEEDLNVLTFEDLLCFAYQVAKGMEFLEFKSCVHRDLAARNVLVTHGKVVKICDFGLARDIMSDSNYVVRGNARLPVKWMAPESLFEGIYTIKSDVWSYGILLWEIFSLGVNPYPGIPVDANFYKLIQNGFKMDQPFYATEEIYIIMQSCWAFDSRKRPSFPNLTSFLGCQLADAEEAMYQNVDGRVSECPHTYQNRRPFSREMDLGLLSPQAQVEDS
# Mast/stem cell growth factor receptor Kit, sequence (P10721 whole entry, the tested form may be a part): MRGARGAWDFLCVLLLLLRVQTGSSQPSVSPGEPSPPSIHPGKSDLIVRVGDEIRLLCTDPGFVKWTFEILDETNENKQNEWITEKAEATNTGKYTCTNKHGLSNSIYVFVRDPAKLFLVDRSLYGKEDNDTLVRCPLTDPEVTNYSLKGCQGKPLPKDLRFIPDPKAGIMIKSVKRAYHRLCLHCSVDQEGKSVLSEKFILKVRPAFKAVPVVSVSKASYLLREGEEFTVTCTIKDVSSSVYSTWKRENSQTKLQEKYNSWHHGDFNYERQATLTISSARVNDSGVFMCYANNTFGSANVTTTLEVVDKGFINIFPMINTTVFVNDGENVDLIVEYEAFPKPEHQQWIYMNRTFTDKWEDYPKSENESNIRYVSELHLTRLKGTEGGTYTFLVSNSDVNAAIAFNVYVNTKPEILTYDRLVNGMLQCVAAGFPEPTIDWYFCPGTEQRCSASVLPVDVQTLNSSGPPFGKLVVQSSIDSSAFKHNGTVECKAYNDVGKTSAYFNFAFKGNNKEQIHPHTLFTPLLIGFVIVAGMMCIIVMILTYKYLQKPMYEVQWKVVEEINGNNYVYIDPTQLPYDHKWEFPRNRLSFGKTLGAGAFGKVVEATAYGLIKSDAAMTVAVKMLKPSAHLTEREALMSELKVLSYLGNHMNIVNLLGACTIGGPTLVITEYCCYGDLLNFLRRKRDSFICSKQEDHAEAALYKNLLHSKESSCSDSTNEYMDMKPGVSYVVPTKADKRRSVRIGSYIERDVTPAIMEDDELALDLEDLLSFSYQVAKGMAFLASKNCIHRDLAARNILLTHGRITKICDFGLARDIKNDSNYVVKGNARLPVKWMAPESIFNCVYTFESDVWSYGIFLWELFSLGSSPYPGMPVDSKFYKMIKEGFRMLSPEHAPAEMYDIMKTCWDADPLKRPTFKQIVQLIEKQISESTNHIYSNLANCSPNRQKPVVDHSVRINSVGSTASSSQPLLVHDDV
# Tyrosine-protein kinase ABL1 (Homo sapiens), sequence (P00519 whole entry, the tested form may be a part): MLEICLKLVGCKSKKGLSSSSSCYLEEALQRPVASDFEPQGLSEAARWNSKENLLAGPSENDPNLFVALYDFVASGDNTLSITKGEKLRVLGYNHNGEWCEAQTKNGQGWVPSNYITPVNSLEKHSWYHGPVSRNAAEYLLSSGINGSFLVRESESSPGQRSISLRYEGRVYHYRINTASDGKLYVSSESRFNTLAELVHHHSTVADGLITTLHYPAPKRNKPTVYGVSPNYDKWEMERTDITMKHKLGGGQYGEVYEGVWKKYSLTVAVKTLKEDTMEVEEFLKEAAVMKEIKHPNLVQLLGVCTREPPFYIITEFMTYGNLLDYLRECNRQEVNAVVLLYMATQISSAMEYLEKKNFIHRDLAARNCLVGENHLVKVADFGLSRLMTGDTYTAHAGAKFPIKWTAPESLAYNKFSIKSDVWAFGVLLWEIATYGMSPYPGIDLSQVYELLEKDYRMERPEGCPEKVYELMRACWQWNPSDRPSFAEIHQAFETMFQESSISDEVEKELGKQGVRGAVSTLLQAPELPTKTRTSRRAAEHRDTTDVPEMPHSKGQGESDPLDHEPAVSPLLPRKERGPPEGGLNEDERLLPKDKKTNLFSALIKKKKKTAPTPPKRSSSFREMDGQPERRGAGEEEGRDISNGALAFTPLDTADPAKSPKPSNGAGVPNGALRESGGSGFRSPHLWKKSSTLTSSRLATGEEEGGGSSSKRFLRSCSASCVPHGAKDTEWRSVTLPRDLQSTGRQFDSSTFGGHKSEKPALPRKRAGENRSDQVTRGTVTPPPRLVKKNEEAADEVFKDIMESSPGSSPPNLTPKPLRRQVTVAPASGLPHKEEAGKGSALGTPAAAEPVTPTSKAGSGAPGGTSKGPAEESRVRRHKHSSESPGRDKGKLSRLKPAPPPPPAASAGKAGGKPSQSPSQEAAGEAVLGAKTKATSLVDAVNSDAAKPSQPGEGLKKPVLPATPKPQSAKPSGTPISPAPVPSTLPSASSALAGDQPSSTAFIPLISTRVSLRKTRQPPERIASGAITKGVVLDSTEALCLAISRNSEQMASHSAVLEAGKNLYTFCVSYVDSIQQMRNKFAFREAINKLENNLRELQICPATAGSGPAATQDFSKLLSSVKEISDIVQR
smiles,measurement,setting,value
COc1cc(-c2cnc3c(N4CCNC(=O)C4)snc3c2)ccc1N,Papp,[1],43.48 ×10⁻⁶ cm/s
same,solubility,[2],51.3 µM
same,CC50,[3],> 10 µM
same,Papp,[4],30.32 ×10⁻⁶ cm/s
COc1cc(-c2cnc3c(N4CC5CCC(C4)O5)snc3c2)ccc1N,CC50,[3],> 10 µM
COc1cc(-c2cnc3c(N4CCOCC4)snc3c2)ccc1N,Papp,[1],30.8 ×10⁻⁶ cm/s
same,solubility,[2],3.44 µM
same,EC50,[5],1.84 µM
same,EC90,[5],8.05 µM
same,CC50,[6],11 µM
same,EC90,[7],21.9 µM
same,Papp,[4],45.45 ×10⁻⁶ cm/s
COc1cc(-c2cnc3c(N4CCC(N)CC4)snc3c2)ccc1N,CC50,[3],> 10 µM
COc1cc(-c2cnc3c(N4CCCOCC4)snc3c2)ccc1N,CC50,[3],> 10 µM
COc1cc(-c2cnc3c(N4CCC(F)(F)CC4)snc3c2)ccc1N,CC50,[3],> 10 µM
COc1cc(-c2cnc3c(N4CCCCC4)snc3c2)ccc1N,CC50,[3],> 10 µM
COc1cc(-c2cnc3c(N4CCOC(C)(C)C4)snc3c2)ccc1N,CC50,[3],4.14 µM
COc1cc(-c2cnc3c(N4C[C@@H](C)O[C@H](C)C4)snc3c2)ccc1N (relative stereo),EC50,[5],0.7 µM
same,EC90,[5],2.15 µM
same,CC50,[3],> 10 µM
COc1cc(-c2cnc3c(N4CCC(C(N)=O)CC4)snc3c2)ccc1N,CC50,[3],> 10 µM
COc1cc(-c2cnc3c(N4C[C@@H](C)O[C@@H](C)C4)snc3c2)ccc1N,Papp,[1],18.28 ×10⁻⁶ cm/s
same,solubility,[2],0.52 µM
same,EC50,[5],0.82 µM
same,EC90,[5],1.76 µM
same,inhibition,[8],> 90%
same,inhibition,[9],> 90%
same,CC50,[10],> 20 µM
same,inhibition,[11],> 90%
same,CC50,[3],> 25 µM
same,CC50,[6],> 10 µM
same,inhibition,[12],> 90%
same,Activity,[13],Dose-dependent effect
same,EC50,[14],3.54 µM
same,Activity,[15],inactive
same,inhibition,[16],> 90%
same,inhibition,[17],> 90%
same,EC90,[7],7.73 µM
same,Kd,[18],0.089 µM
same,inhibition,[19],> 90%
same,inhibition,[20],> 90%
same,Papp,[4],31.33 ×10⁻⁶ cm/s
COc1cc(-c2cnc3c(N4CCOC(C)C4)snc3c2)ccc1N (racemic),CC50,[3],21.5 µM
same,CC50,[6],9.4 µM
same,Activity,[7],Dose-dependent effect
COc1cc(-c2cnc3c(N4CCS(=O)(=O)CC4)snc3c2)ccc1N,CC50,[3],> 10 µM
COCCc1ccc(OCC(O)CNC(C)C)cc1 (stereo not drawn) [METOPROLOL],Papp,[1],30.66 ×10⁻⁶ cm/s
same,Papp,[4],39.29 ×10⁻⁶ cm/s
COc1cc(-c2cnc3c(N4CCO[C@@H](C)C4)snc3c2)ccc1N,CC50,[3],> 25 µM
same,Activity,[7],Dose-dependent effect
COc1cc(-c2cnc3c(N4CCOC[C@H]4C)snc3c2)ccc1N,CC50,[3],> 10 µM
COc1cc(-c2cnc3c(N4CCOC[C@@H]4C)snc3c2)ccc1N,CC50,[3],6.32 µM
CC(C)NCC(O)COc1cccc2ccccc12 (stereo not drawn) [PROPRANOLOL],solubility,[2],117 µM
COc1cc(-c2cnc3c(NC4CCOCC4)snc3c2)ccc1N,CC50,[3],> 20 µM
COc1cc(-c2cnc3c(N4CC5(COC5)C4)snc3c2)ccc1N,EC50,[5],7.12 µM
same,EC90,[5],> 10 µM
same,CC50,[3],> 10 µM
same,Kd,[18],0.17 µM
COc1cc(-c2cnc3c(N4CCCC(C(N)=O)C4)snc3c2)ccc1N (stereo not drawn),CC50,[3],> 10 µM
COc1cc(-c2cnc3c(N4CCO[C@H](C)C4)snc3c2)ccc1N,CC50,[3],20.7 µM
same,CC50,[6],> 10 µM
same,Activity,[7],Dose-dependent effect
COc1cc(-c2cnc3c(N4CCC(C#N)CC4)snc3c2)ccc1N,CC50,[3],2.09 µM
